Molecules are shown by their SMILES.

Assay [1] relates to E. coli BW25113 ΔtolC pDualrep2 reporter strain. Kind of assay: pDualrep2 double fluorescent reporter assay on agar plate. To be noted: compound spotted on agar lawn, overnight 37 °C. It is filed as cell-based. From the text: Next, we tested the effects of CAM-C10-TPP and CAM-C14-TPP in bacterial cells using an E. coli ∆tolC-based reporter system, which is designed to screen inhibitors targeting either protein synthesis or DNA replication. In this reporter system, the gene of the far-red fluorescent protein, katushka2S, is inserted downstream of the genetically modified tryptophan attenuator, making it possible to express Katushka2S only upon exposure to ribosome-stalling compounds (Figure 2B, CHL and ERY, red pseudocolor rings).
Reporter strain […] [71] ΔtolC (BW25113) pDualrep2 was used, as previously described. The tested antibiotics, CAM-C10-TPP (10 mM, 1.5 μL), CAM-C14-TPP (10 mM, 1.5 μL), C10-TPP (10 mM, 1.5 μL), C14-TPP (10 mM, 1.5 μL), CAM (10 mM, 1.5 μL), CAM-Ac (10 mM, 1.5 μL), chloramphenicol (CHL, 2 mM, 1 μL), erythromycin (Ery, 7 mM, 1 μL), and levofloxacin (Lev, 70 nM, 1 μL), were applied to an agar plate that already contained a lawn of the reporter strain. After being incubated overnight at 37 °C, the plate was scanned by ChemiDoc (Bio-Rad) in the modes, “Cy3-blot” for RFP and “Cy5-blot” for Katushka2S.
(A reporter such as luciferase makes a cellular process visible.)

The subject of assay [2] is A549. Description: MTT assay growth inhibition. It is filed as cell-based, human. To be noted: Homo sapiens, A549; MTT, 72 h; read-out: 50% growth inhibition concentration (GI50). On the procedure: (§1) The cytotoxicity of the tested substances was tested using the MTT (3-(4,5-dimethylthiazol-2-yl)-2,5-diphenyltetrazolium bromide) assay, with some modifications, and 2500 cells per well for the MCF7, HEK293T, and A549 cell lines or 4000 cells per well for the VA-13 cell line were plated in 135 µL of DMEM-F12 media (Gibco, Waltham, MA, USA) in a 96-well plate and incubated in the 5% CO2 incubator for first 16 h, without treatment. Then, 15 µL of media-DMSO solutions of the tested substances was added to the cells (the final DMSO concentrations in the media were 1% or less) and treated cells for 72 h with 25 nM–50 µM (eight dilutions) of our substances (triplicate each), and serial DMSO dilutions and doxorubicin were used as controls. The MTT reagent (Paneco LLC, Moscow, Russia) was then added to cells to a final concentration of 0.5 g/L (10× stock solution in PBS was used) and incubated for 2.5 h at 37 °C in the incubator under an atmosphere of 5% CO2. The MTT solution was then discarded, and 140 µL of DMSO (PharmaMed LLC, Krasnodarsky Krai, Russia) was added. The plates were swayed on a shaker (60 rpm) to dissolve the formazan. The absorbance was measured using a microplate reader (VICTOR X5 Light Plate Reader, PerkinElmer, Waltham, MA, USA) at a wavelength of 565 nm (in order to measure formazan concentration). The results were used to construct a dose-response graph and to estimate the CC50 value.
On the technique in general: Tetrazolium dyes change colour on reduction, which living cells bring about.

Assay [3] has as its system VA13. Kind of assay: MTT assay growth inhibition. It counts as cell-based. To be noted: VA-13, 72 h, read-out: 50% growth inhibition concentration (GI50). On the procedure:
as §1

The test system of assay [4] is MCF7. Kind of assay: MTT assay growth inhibition. It counts as cell-based. To be noted: Homo sapiens, 72 h, read-out: 50% growth inhibition concentration (GI50). On the procedure: as §1
For assay [5], the system named is HEK293T. Description: MTT assay growth inhibition. It counts as cell-based. The conditions noted are these: Homo sapiens, HEK-293T, 72 h, read-out: 50% growth inhibition concentration (GI50). On the procedure:
as §1

Take `CC(=O)N[C@H](CO)[C@H](O)c1ccc([N+](=O)[O-])cc1` [CAM-Ac, N-acetyl-chloramphenicol amine]: the “induction of reporters (Katushka2S: ribosome stalling; RFP: DNA damage)” value (shortened to “induction of reporters”) in assay [1] is listed as “neither the induction of either of the two reporters”. On to `COc1cccc2c1C(=O)c1c(O)c3c(c(O)c1C2=O)C[C@@](O)(C(=O)CO)C[C@@H]3O[C@H]1C[C@H](N)[C@H](O)[C@H](C)O1` [Doxorubicin, doxorubicin], for which the GI50 was found to be 40 ± 10 nM in assay [2], 180 ± 40 nM in assay [3], 40 ± 10 nM in assay [4] and 7 ± 1 nM in assay [5].

For `CC[C@H]1OC(=O)[C@H](C)[C@@H](O[C@H]2C[C@@](C)(OC)[C@@H](O)[C@H](C)O2)[C@H](C)[C@@H](O[C@@H]2O[C@H](C)C[C@H](N(C)C)[C@H]2O)[C@](C)(O)C[C@@H](C)C(=O)[C@H](C)[C@@H](O)[C@]1(C)O` [ERY, erythromycin], in assay [1], the “induction of reporters” value is reported as “red pseudocolor rings are observed due to the expression of the fluorescent protein, Katushka2S (but not RFP)”.

Take `C[C@H]1COc2c(N3CCN(C)CC3)c(F)cc3c(=O)c(C(=O)O)cn1c23` [LEV, levofloxacin]: the “induction of reporters” value in assay [1] is on record as “green pseudocolored rings”.

For the origin of these results see PMC8145938, “Triphenilphosphonium Analogs of Chloramphenicol as Dual-Acting Antimicrobial and Antiproliferating Agents” (Antibiotics, 2021).
